This note sets out measurements from patent publication US7169786B2, “Isoxazoline derivatives as anti-depressants” (priority 2001, dated 2007).

One test has as its target T1, h5-HT transporter (Homo sapiens, UniProt P31645).
T1 construct: Human platelet membranes (Oceanix Biosciences Corporation, Hanover, Md., USA) were thawed; tissue Oceanix Biosciences Corporation, Hanover, Md., USA; host or cells: human platelet membranes
Put plainly: Radioligand binding experiment for 5-HT transporter ([3H]paroxetine, human platelet membranes). The conditions noted are these: human platelet membranes, [3H]paroxetine 0.5 nM; for IC50: read-out: 5HTT pIC50 (converted). The method in brief: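 Competition binding of [^3H]paroxetine to human platelet membranes in Tris-HCl 50 mM, 120 mM NaCl, 5 mM KCl; filter-bound radioactivity counted.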

The target in the next test is T2, hα2C receptor (Homo sapiens, UniProt P18825).
T2 construct: expressed in transfected cells
T2 sequence (P18825 1-462): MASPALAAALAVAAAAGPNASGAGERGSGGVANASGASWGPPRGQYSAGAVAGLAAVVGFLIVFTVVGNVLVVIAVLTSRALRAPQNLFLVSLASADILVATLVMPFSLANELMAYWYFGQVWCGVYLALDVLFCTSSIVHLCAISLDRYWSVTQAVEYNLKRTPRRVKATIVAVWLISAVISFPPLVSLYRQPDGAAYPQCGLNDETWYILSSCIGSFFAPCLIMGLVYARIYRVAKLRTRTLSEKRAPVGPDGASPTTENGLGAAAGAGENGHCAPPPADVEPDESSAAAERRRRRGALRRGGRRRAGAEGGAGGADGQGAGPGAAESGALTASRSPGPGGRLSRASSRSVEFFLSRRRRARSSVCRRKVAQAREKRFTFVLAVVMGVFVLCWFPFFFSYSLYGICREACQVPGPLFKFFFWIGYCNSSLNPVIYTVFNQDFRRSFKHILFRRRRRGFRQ
Put plainly: Radioligand binding experiment for hα2C receptor ([3H]-raulwolscine). The conditions noted are these: membranes of CHO cells expressing human α2C receptor, [3H]raulwolscine 1 nM; for IC50: read-out: hα2C pIC50 (converted). The method in brief:
(§1)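 Competition binding with [3H]-rauwolscine on membranes from CHO cells stably expressing human α2A, α2B or α2C receptors (sodium butyrate-induced), in 25 mM glycylglycine pH 8.0; filtration and scintillation counting.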

In another test the target is T3, hα2B receptor (Homo sapiens, UniProt P18089).
T3 construct: expressed in transfected cells
T3 sequence (P18089 1-450): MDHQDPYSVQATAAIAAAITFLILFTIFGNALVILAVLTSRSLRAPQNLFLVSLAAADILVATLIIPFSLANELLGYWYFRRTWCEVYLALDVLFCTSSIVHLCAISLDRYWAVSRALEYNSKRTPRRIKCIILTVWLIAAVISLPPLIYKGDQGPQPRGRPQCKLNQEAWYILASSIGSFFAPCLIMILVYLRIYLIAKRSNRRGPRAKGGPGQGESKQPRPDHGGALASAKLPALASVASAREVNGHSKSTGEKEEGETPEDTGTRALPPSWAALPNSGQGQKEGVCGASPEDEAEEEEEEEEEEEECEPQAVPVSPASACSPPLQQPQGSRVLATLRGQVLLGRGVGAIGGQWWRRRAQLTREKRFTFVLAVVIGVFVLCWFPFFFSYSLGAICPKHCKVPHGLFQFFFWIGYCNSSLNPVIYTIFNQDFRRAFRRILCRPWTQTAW
Put plainly: Radioligand binding experiment for hα2B receptor ([3H]-raulwolscine). The conditions noted are these: membranes of CHO cells expressing human α2B receptor, [3H]raulwolscine 1 nM; for IC50: read-out: hα2B pIC50 (converted). The essentials:
as §1

For another test, the target named is T4, hα2A receptor (Homo sapiens, UniProt P08913).
T4 construct: expressed in transfected cells
T4 sequence (P08913 1-465): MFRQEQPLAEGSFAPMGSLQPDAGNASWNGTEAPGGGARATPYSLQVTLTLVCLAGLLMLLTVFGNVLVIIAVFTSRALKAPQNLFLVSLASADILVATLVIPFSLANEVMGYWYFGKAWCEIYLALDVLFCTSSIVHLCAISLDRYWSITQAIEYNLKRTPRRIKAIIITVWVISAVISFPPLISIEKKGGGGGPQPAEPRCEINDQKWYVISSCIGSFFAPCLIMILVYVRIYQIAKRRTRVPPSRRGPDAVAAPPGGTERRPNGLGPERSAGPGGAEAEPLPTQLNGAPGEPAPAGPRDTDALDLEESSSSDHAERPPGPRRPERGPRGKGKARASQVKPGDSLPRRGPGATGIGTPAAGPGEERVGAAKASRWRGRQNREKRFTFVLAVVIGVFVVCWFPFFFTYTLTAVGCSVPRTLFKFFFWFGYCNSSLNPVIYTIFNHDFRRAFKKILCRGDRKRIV
Put plainly: Radioligand binding experiment for hα2A receptor ([3H]-raulwolscine). The conditions noted are these: membranes of CHO cells expressing human α2A receptor, [3H]raulwolscine 1 nM; for IC50: read-out: hα2A pIC50 (converted). The essentials:
as §1

Structures are written as SMILES.

T1 sequence (P31645 whole entry): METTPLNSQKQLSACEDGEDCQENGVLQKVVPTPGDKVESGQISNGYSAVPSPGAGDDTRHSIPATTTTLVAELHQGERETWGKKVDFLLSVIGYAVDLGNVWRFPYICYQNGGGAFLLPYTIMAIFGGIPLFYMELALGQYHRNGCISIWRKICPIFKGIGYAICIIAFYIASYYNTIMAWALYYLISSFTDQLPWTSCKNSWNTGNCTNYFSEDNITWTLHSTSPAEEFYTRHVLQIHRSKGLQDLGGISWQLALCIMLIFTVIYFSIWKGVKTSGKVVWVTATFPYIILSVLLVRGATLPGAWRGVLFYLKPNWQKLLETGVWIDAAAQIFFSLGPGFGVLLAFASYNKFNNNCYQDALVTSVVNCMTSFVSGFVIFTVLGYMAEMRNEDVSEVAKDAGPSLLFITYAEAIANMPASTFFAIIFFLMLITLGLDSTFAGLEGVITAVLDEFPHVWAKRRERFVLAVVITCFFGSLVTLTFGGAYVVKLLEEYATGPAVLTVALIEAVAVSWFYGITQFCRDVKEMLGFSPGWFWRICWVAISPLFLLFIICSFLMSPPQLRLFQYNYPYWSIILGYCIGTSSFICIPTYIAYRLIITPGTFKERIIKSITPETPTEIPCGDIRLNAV

Consider `CSc1cc2c(cc1F)C1=NOC(CN3CCN(CC(C)=Cc4ccccc4)CC3)C1CO2` (stereo not shown) [Compound 244], for which the IC50 is 126 nM on h5-HT transporter, 1.35 nM on hα2C receptor, 7.41 nM on hα2B receptor and 3.8 nM at hα2A receptor.
The matching figures for `COc1cc2c(cc1OC)C1=NOC(CN3CCN(Cc4ccsc4)CC3)C1CO2` (stereo not shown) [Compound 300]: 724 nM, 631 nM, 933 nM and 347 nM.
As to `COc1cc2c(cc1OC)C1=NOC(CN3CCN(CC4=Cc5ccccc5CC4)CC3)C1CO2` (stereo not shown) [Compound 21], the IC50 at h5-HT transporter was 1.2 nM; on hα2C receptor, 1.05 nM; on hα2B receptor, 18.6 nM; on hα2A receptor, 1.62 nM.
As for `COc1ccc2c(c1)CCC1C2=NOC1CN1CCN(CC=Cc2ccccc2)CC1` (stereo not shown) [Comp 220], the IC50 at h5-HT transporter was 66.1 nM; on hα2C receptor, 43.7 nM; on hα2B receptor, 14.1 nM; on hα2A receptor, 7.59 nM.
`COc1cc2c(cc1OC)C1=NOC(CN3CCN(Cc4ccccc4)CC3)C1CO2` (stereo not shown) [Compound 31]: the IC50 on h5-HT transporter is 501 nM; on hα2C receptor it was 1000 nM; at hα2B receptor, 631 nM; on hα2A receptor it was 794 nM.
In the case of `C(=Cc1ccccc1)CN1CCN(CC2ON=C3c4cc5c(cc4OCC32)OCO5)CC1` (stereo not shown) [Compound 278], the IC50 at h5-HT transporter was 245 nM; on hα2C receptor it was 6.92 nM; on hα2B receptor, 7.24 nM; on hα2A receptor it was 3.24 nM.
With `COc1cc2c(cc1Cl)C1=NOC(CN3CCN(CC(C)=Cc4ccccc4)CC3)C1CO2` (stereo not shown) [Compound 246], the “5HTT pIC50” value at h5-HT transporter was 7.50. For the same compound, the “hα2C pIC50” value on hα2C receptor is recorded as 7.86. For the same compound, at hα2B receptor, the “hα2B pIC50” value is 7.90. The “hα2A pIC50” value on hα2A receptor is given as 7.55.
Regarding `COc1cc2c(cc1OC)C1=NOC(CN3CCN(CC=Cc4ccc5c(c4)CCO5)CC3)C1CO2` (stereo not shown) [Compound 125], the IC50 at h5-HT transporter is 13.5 nM; on hα2C receptor, 34.7 nM; at hα2B receptor, 141 nM; on hα2A receptor, 56.2 nM.
As for `COc1cc2c(cc1OC)C1=NOC(CN(C)C3CCN(Cc4ccc5ccccc5c4)CC3)C1CO2` (racemic) [Compound 281], at h5-HT transporter, the “5HTT pIC50” value is reported as 7.25. In addition, the “hα2C pIC50” value at hα2C receptor is on record as 7.31. Moreover, the “hα2B pIC50” value on hα2B receptor is recorded as 7.19. In addition, the “hα2A pIC50” value at hα2A receptor was found to be 7.05.
As to `COc1cc2c(cc1O)OCC1C2=NOC1CN1CCN(C/C(C)=C/c2ccccc2)CC1` (stereo not shown) [Compound 3], the IC50 is 16.2 nM on h5-HT transporter, 1.86 nM at hα2C receptor, 2.57 nM at hα2B receptor and 2.34 nM at hα2A receptor.
Consider `COc1cc2c(cc1OC)C1=NOC(CN3CCN(CC=Cc4ccc(F)cc4)CC3)C1CO2` (stereo not shown) [Compound 43], for which the IC50 was 15.8 nM on h5-HT transporter, 138 nM at hα2C receptor, 64.6 nM at hα2B receptor and 102 nM on hα2A receptor.
The matching figures for `COc1cc2c(cc1OC)C1=NOC(CN3CCN(Cc4ccc5cc(F)ccc5c4)CC3)C1CO2` (stereo not shown) [Compound 76]: 1.58 nM, 25.1 nM, 89.1 nM and 72.4 nM.
On to `COc1cc2c(cc1OC)C1=NOC(CN3CCN(CCc4ccc5c(c4)OCO5)CC3)C1CO2` (stereo not shown) [Compound 47], for which the IC50 at h5-HT transporter was 50.1 nM; at hα2C receptor it was 851 nM; at hα2B receptor, 447 nM; at hα2A receptor it was 661 nM.
Regarding `COc1cc2c(cc1OC)C1=NOC(CN3CCN(Cc4ccc5ccccc5n4)CC3)C1CO2` (stereo not shown) [Compound 45], the IC50 is 69.2 nM on h5-HT transporter, 43.7 nM on hα2C receptor, 70.8 nM on hα2B receptor and 57.5 nM at hα2A receptor.
Regarding `COc1cc2c(cc1OC)C1=NOC(CN3CCN(CC(C)Oc4cccc(F)c4)CC3)C1CO2` (stereo not shown) [Compound 27], the IC50 at h5-HT transporter was 18.2 nM; on hα2C receptor it was 1.55 nM; at hα2B receptor it was 6.03 nM; at hα2A receptor, 4.07 nM.
Turning to `CCC(=Cc1ccccc1)CN1CCN(CC2ON=C3c4cc(OC)c(OC)cc4OCC32)CC1` (stereo not shown) [Compound 154], the IC50 at h5-HT transporter was 89.1 nM; at hα2C receptor, 87.1 nM; at hα2B receptor, 40.7 nM; on hα2A receptor, 53.7 nM.
Turning to `c1ccc2cc(CN3CCN(CC4ON=C5c6ccc(OC7CCOC7)cc6OCC54)CC3)ccc2c1` (stereo not shown) [Compound 271], the IC50 was 2.95 nM at h5-HT transporter, 42.7 nM on hα2C receptor, 13.8 nM at hα2B receptor and 3.89 nM on hα2A receptor.
The like results for `COc1cc2c(cc1OC)C1=NOC(CN3CCN(Cc4ccoc4)CC3)C1CO2` (stereo not shown) [Compound 296] were, in that order, 871 nM, 724 nM, 407 nM and 759 nM.
Regarding `COc1ccc2c(c1)OCC1C2=NOC1CCN1CCN(Cc2ccc3ccccc3c2)CC1` (stereo not shown) [Compound 280], the IC50 on h5-HT transporter was 8.13 nM; on hα2C receptor, 380 nM; at hα2B receptor, 447 nM; at hα2A receptor, 91.2 nM.
